# Data: patent US20170022159A1, “HETEROCYCLIC AMPHOTERIC COMPOUNDS” (Eastman Chemical Company, priority 2014, published 2017)
# Where two headings read alike, the source gives them in different places.
# Experiments:
# [1] = for Percent amphoteric remaining: buffer
# Protocol: The resulting mixture was placed in a 50° C. oven. Samples were taken periodically and analyzed for the amount of (4-lauroyloxy-1-methylpiperidinium-1-yl)acetate remaining by quantitative HPLC.
# [2] = Fluorimetric determination of critical micelle concentration (DPH dye); format: physicochemical
# Protocol: The critical micelle concentration (CMC) was also determined for each compound. The CMC is the concentration of surfactant above which micelles spontaneously form. CMC is an important characteristic of a surfactant. At surfactant concentrations below the CMC, surface tension varies widely with surfactant concentration. At concentrations above the CMC, surface tension remains fairly constant. A lower CMC indicates less surfactant is needed to saturate interfaces and form micelles. Typical CMC values are less than 1 weight percent (10,000 ppm).
# The fluorimetric determination of CMC described by Chattopadhyay and London (Analytical Biochemistry, Vol. 139, pp. 408-412 (1984)) was used to obtain the critical micelle concentrations found in Table 3 below. This method employs the fluorescent dye 1,6-diphenyl-1,3,5-hexatriene (DPH) in a solution of the surface-active agent. The analysis is based on differences in fluorescence upon incorporation of the dye into the interior of the micelles. As the solution exceeds CMC, a large increase in fluorescence intensity is observed.
# [3] = Foaming Properties of Surface-Active Agents (ASTM 1173-07), foam height; format: physicochemical
# From the text: The Standard Test Method for Foaming Properties of Surface-Active Agents (ASTM 1173-07) was used to determine the foaming properties of the heterocyclic amphoteric compounds of the formula 1 described herein. This method generates foam under low-agitation conditions and is generally used for moderate- and high-foam surfactants. This test gathers data on initial foam height and foam decay. Foam decay provides information on foam stability.
# The apparatus for carrying out this test includes a jacketed column and a pipet. The jacketed column serves as a receiver, while the pipet delivers the surface-active solution. Solutions of each surface-active agent were prepared. The solution of the heterocyclic amphoteric compound to be tested was added to the receiver (50 mL) and to the pipet (200 mL). The pipet was positioned above the receiver and opened. As the solution fell and made contact with the solution in the receiver, foam was generated. When the pipet was empty, the time was noted and an initial foam height was recorded. The foam height was recorded each minute for five minutes. Exact size specifications for the glassware can be found in ASTM 1173-07. The foam height results for each heterocyclic amphoteric compound 1 and representative standards are listed below in Tables 1 (0.1% concentration) and 2 (1% concentration).
# [4] = 1 g/L (0.1 weight %), t = 0 min
# [5] = 1 g/L (0.1 weight %), t = 1 min
# [6] = 1 g/L (0.1 weight %), t = 2 min
# [7] = 1 g/L (0.1 weight %), t = 3 min
# [8] = 1 g/L (0.1 weight %), t = 4 min
# [9] = 1 g/L (0.1 weight %), t = 5 min
# [10] = 10 g/L (1.0 weight %), t = 0 min
# [11] = 10 g/L (1.0 weight %), t = 1 min
# [12] = 10 g/L (1.0 weight %), t = 2 min
# [13] = 10 g/L (1.0 weight %), t = 3 min
# [14] = 10 g/L (1.0 weight %), t = 4 min
# [15] = 10 g/L (1.0 weight %), t = 5 min
Molecule,CMC [2] [mM],CMC (ppm) [2] [ppm],"Foam height (cm) at time t (min) [3, 4] [cm]","Foam height (cm) at time t (min) [3, 5] [cm]","Foam height (cm) at time t (min) [3, 6] [cm]","Foam height (cm) at time t (min) [3, 7] [cm]","Foam height (cm) at time t (min) [3, 8] [cm]","Foam height (cm) at time t (min) [3, 9] [cm]","Foam height (cm) at time t (min) [3, 10] [cm]","Foam height (cm) at time t (min) [3, 11] [cm]","Foam height (cm) at time t (min) [3, 12] [cm]","Foam height (cm) at time t (min) [3, 13] [cm]","Foam height (cm) at time t (min) [3, 14] [cm]","Foam height (cm) at time t (min) [3, 15] [cm]",other results
"3-(cocoyloxypropyldimethylammonio)acetate [Comparative Example 2, reference compound]",–,–,–,–,–,–,–,–,–,–,–,–,–,–,"Percent amphoteric remaining ([1]; 0 h, pH 5): 100%; Percent amphoteric remaining ([1]; 336 h, pH 5): 74%; Percent amphoteric remaining ([1]; 1344 h, pH 5): 73%; Loss of compound (in words) ([1]; milder conditions (pH 5, 45° C.)): significant loss"
(4-cocoyloxy-1-methylpiperidinium-1-yl)acetate [Example 3],0.062,22.9,16.5,16.0,15.5,15.5,15.5,15.5,18.5,18.0,17.5,17.0,17.0,17.0,–
"CCCCCCCCCCCCOS(=O)(=O)O.N [ammonium lauryl sulfate, reference compound]",1.38,392,–,–,–,–,–,–,–,–,–,–,–,–,–
"CCCCCCCCCCCCOS(=O)(=O)[O-].[Na+] [sodium lauryl sulfate, reference compound]",8.27,2386,–,–,–,–,–,–,–,–,–,–,–,–,–
"CCCCCCCCCCCC(=O)OCC1CCC[N+](C)(CC(=O)[O-])C1 (centres unmarked) [Example 11, (3-lauroyloxymethyl-1-methylpiperidinium-1-yl)acetate]",0.248,95.0,18.5,17.5,17.5,17.0,16.5,16.0,19.0,18.0,18.0,17.5,17.5,17.5,–
(4-lauramido-1-methylpiperidinium-1-yl)acetate [Example 17],1.54,566.5,–,–,–,–,–,–,–,–,–,–,–,–,–
(3-cocoyloxymethyl-1-methylpiperidinium-1-yl)acetate [Example 5],0.062,23.7,16.5,16.0,15.5,15.5,15.0,15.0,18.0,17.5,17.0,17.0,17.0,16.5,–
cocamidopropyl betaine [reference compound],0.069,24.5,17.0,16.0,16.0,16.0,–,15.5,17.5,16.5,–,16.0,16.0,16.0,–
(4-cocoyloxymethyl-1-methylpiperidinium-1yl)acetate [Example 7],0.050,19.2,16.0,14.5,12.5,9.0,6.0,4.0,18.0,17.0,17.0,17.0,16.5,16.5,–
"CCCCCCCCCCCC(=O)OC1CC[N+](C)(CC(=O)[O-])CC1 (centres unmarked) [Example 9, (4-lauroyloxy-1-methylpiperidinium-1-yl)acetate]",–,–,17.0,17.0,16.5,16.5,16.0,16.0,16.5,16.0,16.0,15.5,15.5,15.5,"Percent amphoteric remaining ([1]; 0 h, pH 4.5): 100%; Percent amphoteric remaining ([1]; 336 h, pH 4.5): 98%; Percent amphoteric remaining ([1]; 1008 h, pH 4.5): 96%; Percent amphoteric remaining ([1]; 1344 h, pH 4.5): 85%; Loss of compound (in words) ([1]; extended incubation in pH 4.5 water at 50° C.): limited loss"
